# Assay results as given in patent publication US7563825B1, “Modulation of beta-catenin coactivator interactions to effect stem cell growth or differentiation” (Choongwae Pharma Corporation, priority 2005, dated 2009).
# “Also recorded” adds a separate entry of the source.
# Experiments:
# [1] = system: C2C12 myoblasts; test: Differentiation of C2C12 myoblasts; type: cell-based; settings: 10 μM ICG-001, compared to differentiation medium or growth medium (FIGS. 3, 4)
# Protocol: FIG. 4 illustrates that differentiation of C2C12 myeloblasts is induced by 10 μM ICG-001 as compared to differentiation medium.
# (§1) From our chemogenomic studies with the small molecule inhibitor of the β-catenin/CBP interaction and additional gene expression profiling, we have developed a model that describes how differential coactivator usage in Wnt signaling controls proliferation vs. differentiation. The critical feature of this model is that the CBP arm (FIG. 2, left side) of the pathway is essential for proliferation without differentiation, for example in cancer or stem cells, whereas the p300 arm (FIG. 2, right side) is critical for differentiation, with limited proliferation.
# [2] = system: 3T3-L1 preadipocytes; test: Differentiation of 3T3-L1 preadipocytes; type: cell-based
# Text: as §1
# [3] = target: β-catenin/CBP (Homo sapiens, UniProt Q92793); settings: CBP arm of the Wnt pathway; cited from earlier work
# β-catenin/CBP, sequence (Q92793 whole entry): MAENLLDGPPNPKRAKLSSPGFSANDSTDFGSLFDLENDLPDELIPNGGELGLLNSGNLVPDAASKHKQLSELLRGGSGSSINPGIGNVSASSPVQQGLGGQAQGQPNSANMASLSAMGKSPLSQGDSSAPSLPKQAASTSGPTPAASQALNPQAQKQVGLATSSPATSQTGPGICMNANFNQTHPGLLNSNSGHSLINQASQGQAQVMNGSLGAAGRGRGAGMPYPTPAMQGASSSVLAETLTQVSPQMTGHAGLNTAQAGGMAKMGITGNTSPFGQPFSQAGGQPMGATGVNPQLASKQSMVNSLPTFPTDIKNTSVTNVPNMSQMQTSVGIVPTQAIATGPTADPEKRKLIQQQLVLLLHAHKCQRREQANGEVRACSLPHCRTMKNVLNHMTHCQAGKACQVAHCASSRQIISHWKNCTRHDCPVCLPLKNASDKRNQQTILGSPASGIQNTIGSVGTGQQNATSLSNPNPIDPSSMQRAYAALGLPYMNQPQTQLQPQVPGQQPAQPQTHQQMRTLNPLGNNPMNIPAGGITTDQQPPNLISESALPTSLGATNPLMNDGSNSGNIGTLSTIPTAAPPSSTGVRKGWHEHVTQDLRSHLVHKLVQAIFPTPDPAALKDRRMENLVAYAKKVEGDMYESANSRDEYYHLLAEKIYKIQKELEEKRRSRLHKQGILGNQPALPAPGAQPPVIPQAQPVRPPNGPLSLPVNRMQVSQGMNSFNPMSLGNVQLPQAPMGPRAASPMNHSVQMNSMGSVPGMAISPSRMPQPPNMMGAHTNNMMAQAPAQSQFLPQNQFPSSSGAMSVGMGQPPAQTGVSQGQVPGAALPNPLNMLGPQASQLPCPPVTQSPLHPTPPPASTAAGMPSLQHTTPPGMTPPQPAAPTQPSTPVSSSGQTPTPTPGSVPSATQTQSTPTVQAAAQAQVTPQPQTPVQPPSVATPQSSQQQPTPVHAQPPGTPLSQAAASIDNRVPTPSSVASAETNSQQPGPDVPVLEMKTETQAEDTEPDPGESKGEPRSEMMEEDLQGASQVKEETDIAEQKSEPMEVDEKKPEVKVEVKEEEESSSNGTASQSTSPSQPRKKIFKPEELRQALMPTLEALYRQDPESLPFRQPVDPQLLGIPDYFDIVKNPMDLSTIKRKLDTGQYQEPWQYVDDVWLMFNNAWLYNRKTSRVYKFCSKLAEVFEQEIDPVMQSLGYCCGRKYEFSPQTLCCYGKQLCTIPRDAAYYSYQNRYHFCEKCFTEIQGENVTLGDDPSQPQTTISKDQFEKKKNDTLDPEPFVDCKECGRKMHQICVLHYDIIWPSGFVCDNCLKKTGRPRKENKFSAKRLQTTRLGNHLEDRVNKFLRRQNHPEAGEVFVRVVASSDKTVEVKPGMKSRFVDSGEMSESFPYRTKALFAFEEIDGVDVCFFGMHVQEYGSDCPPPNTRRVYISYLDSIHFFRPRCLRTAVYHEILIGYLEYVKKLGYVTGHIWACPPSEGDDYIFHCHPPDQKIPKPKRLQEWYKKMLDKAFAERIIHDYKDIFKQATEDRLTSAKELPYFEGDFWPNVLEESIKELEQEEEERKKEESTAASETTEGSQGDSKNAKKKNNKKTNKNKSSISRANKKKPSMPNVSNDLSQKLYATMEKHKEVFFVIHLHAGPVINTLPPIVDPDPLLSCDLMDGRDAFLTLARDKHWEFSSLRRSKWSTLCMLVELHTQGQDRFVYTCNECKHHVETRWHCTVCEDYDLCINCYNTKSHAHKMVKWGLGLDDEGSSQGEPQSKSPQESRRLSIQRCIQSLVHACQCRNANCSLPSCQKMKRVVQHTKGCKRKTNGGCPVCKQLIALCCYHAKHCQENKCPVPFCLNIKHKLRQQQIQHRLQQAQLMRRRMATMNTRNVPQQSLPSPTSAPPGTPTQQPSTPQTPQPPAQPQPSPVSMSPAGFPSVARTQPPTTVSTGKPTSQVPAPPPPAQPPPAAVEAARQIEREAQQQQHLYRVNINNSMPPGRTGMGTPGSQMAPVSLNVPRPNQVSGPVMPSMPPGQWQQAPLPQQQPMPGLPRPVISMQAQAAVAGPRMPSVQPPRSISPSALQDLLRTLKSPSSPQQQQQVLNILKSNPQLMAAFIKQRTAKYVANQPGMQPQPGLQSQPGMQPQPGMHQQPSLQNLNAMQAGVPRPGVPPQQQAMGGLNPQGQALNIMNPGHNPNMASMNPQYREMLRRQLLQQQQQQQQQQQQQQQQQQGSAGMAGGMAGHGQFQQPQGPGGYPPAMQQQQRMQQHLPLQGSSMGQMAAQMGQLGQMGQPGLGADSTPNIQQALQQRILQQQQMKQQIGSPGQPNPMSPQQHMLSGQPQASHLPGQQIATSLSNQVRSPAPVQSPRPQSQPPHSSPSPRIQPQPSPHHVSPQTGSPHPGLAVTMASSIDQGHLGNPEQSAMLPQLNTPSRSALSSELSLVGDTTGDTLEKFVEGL
# [4] = system: cancer cells; settings: cited from earlier work
structure (smiles),measurement,setting,value
O=C1[C@H](Cc2ccc(O)cc2)N2C(=O)CCN(C(=O)NCc3ccccc3)[C@H]2CN1Cc1cccc2ccccc12 [ICG-001],differentiation of C2C12 myeloblasts (myoblasts),[1],induces the differentiation; also recorded: induced; also recorded: inducing the differentiation
same,"differentiation of non-tumorigenic precursor cells, 3T3-L1 preadipocytes",[2],inducing the differentiation
same,inhibition of β-catenin/CBP dependent transcription,[3],specifically inhibits
same,programmed cell death in cancer cells,[4],selectively inducing programmed cell death
